The nature of series [1]: Microsome incubation, metabolic stability (mouse). The series is classed as in vitro ADME. The conditions noted are these: for microsomal CLint at 10 μM: pH 7.4, liver microsomes, test compound 10 μM, 37° C., read-out: Intrinsic clearance (mouse).
Series [2] can be described thus: Microsome incubation, metabolic stability (human). It is filed as in vitro ADME. To be noted: for microsomal CLint at 10 μM: pH 7.4, human liver microsomes 2.0 mg prot/mL, test compound 10 μM, 37° C., read-out: Intrinsic clearance (human). Here is the method:
The compounds of formula I of the present invention are further characterized by high metabolic stability. This parameter is a prerequisite for good bioavailability, which is necessary to obtain medicaments with acceptable in-vivo activity. The metabolic stability has been tested by the following method:
Incubation mixtures consisted of liver microsomes (rat 1.0 mg prot/mL or human 2.0 mg prot/mL), test compound 10 μM, MgCl2 (3.3 mM), and an NADPH regenerating system consisting of glucose-6-phosphate dehydrogenase, NADPH and glucose-6-phosphate (equivalent to 1 mM NADPH) in a total volume of 1.0 mL of potassium phosphate buffer 100 mM pH 7.4. Reactions were initiated by addition of the NADPH regenerating system at 37° C. At the time of 1, 5, 9, 13, 17, 21, 25, and 29 min a 5 μL aliquot was directly analysed on a HPLC-MS/MS system consisting of a HP 1100 quaternary pump with degasser and a PE-Sciex API-2000 MS/MS spectrometer. The analytical column was a Waters Symmetry Shield RP8 (2.1*50 mm with a […] particle size). A polarity non linear gradient from phase A (MeOH/Ac. Form. 1% 20/80) to phase B (MeOH) was applied for a total run time of 2 minutes at a flow rate of 0.25 mL/min. The PE-Sciex API-2000 MS/MS spectrometer was used for detection of the parent compound. In vivo metabolic clearance was predicted according to published procedures [Houston, Biochem. Pharmacol. 47:1469-1479 (1994)]. In brief, the intrinsic clearance (Clearance, see table below) is calculated from the measured in vitro half-life taking into account incubation volume and microsomal protein used for the in vitro incubation. The intrinsic clearance is expressed in terms of μl/min/mg microsomal protein. For in vivo extrapolations, the hepatic extraction ratio (E) was calculated. Here it is reported the % MAB value which is equal to 1-E. The MAB (maximal achievable bioavailability) values express the maximal bioavailability that one can achieve with the given clearance values.

A short description of series [3]: THESA assay, thermodynamic solubility. It is filed as physicochemical. The conditions noted are these: 22.5 °C, aqueous buffer, thermodynamic from solid, 50 mM phosphate buffer. How it is done:
In addition, the compounds of the present invention have been tested in a THESA assay for determination of the thermodynamic solubility.
Approximately 2 mg of each compound was added in excess to a 50 mM phosphate buffer, at room temperature (22.5±1° C.). Each sample was placed in a microanalysis tube, which was sonicated for 1 h and agitated for 2 h. All suspensions were left overnight. At the next day all pHs were measured with a pH-meter and the samples filtered with a micronic filterplate (MSGVN2250) to separate the solid material from the solution. Then, all solutions were analyzed by HPLC. The calibration line was established by different concentrations of the compound in DMSO. From this regression equation the solubility of the compound was determined.

[4] abbreviates: maximal achievable bioavailability = 1-E, extrapolated from intrinsic clearance.
The mark [5] stands for this setting: comparison table, room temperature.

Converted amounts (≈) assume the structure as drawn. A value given as a limit tells only on which side of the number the result lay.

What is called thermodynamic solubility is solubility found after equilibrating the solid with the medium. In the case of `CC(O)(C(=O)NCC(F)(F)C(F)(F)F)C(=O)N[C@H]1CN(C(=O)OCC(F)(F)F)c2ccccc2NC1=O` (single isomer, unassigned) [Example 10, (S)-3-[(R or S)-2-Hydroxy-2-(2,2,3,3,3-pentafluoro-propylcarbamoyl)-propionylamino]-4-oxo-2,3,4,5-tetrahydro-benzo[b][1,4]diazepine-1-carboxylic acid 2,2,2-trifluoro-ethyl ester and (S)-3-[(S or R)-2-Hydroxy-2-(2,2,3,3,3-pentafluoro-propylcarbamoyl)-propionylamino]-4-oxo-2,3,4,5-tetrahydro-benzo[b][1,4]diazepine-1-carboxylic acid 2,2,2-trifluoro-ethyl ester], the “MAB (mouse)” value in series [1] (setting [4]) is 85.5%. Besides, the microsomal CLint at 10 μM in series [1] worked out at 5.4 µL/min/mg. The “MAB (human)” value in series [2] (setting [4]) is reported as 100.0%. This compound also came in with a solubility (thermodynamic) in series [3] (room temperature (22.5±1° C.)) of 74 µg/mL (≈ 134 µM).
With `CC(O)(C(=O)NCC(F)(F)C(F)(F)F)C(=O)N[C@H]1CN(C(=O)OCC(F)(F)F)c2cc(F)c(F)cc2N(CC(F)(F)F)C1=O` (single isomer, unassigned) [Example 2], the “MAB (mouse)” value in series [1] (setting [4]) was 83.0%. Besides, the microsomal CLint at 10 μM in series [1] was determined as 6.5 µL/min/mg; in series [2], 13.1 µL/min/mg. Further, in series [2] (setting [4]), the “MAB (human)” value is on record as 54.3%.
As to `CC(O)(C(=O)NCC(F)(F)C(F)(F)F)C(=O)N[C@H]1CN(CC(F)(F)F)c2ccccc2NC1=O` (single isomer, unassigned) [Example 4, (R or S)-2-Hydroxy-2-methyl-N-[(S)-4-oxo-1-(2,2,2-trifluoro-ethyl)-2,3,4,5-tetrahydro-1H-benzo[b][1,4]diazepin-3-yl]-N′-(2,2,3,3,3-pentafluoro-propyl)-malonamide and (S or R)-2-Hydroxy-2-methyl-N-[(S)-4-oxo-1-(2,2,2-trifluoro-ethyl)-2,3,4,5-tetrahydro-1H-benzo[b][1,4]diazepin-3-yl]-N′-(2,2,3,3,3-pentafluoro-propyl)-malonamide], the “MAB (mouse)” value in series [1] (comparison table) and in series [1] (setting [4]) was 19.6% throughout. Moreover, the microsomal CLint at 10 μM in series [1] came to 130 µL/min/mg; in series [2] it was 12.5 µL/min/mg. Also, the “MAB (human)” value in series [2] (comparison table) and in series [2] (setting [4]) was 55.5% in each case.
As to `CC(O)(C(=O)NCC(F)(F)C(F)(F)F)C(=O)N[C@H]1CN(C(=O)OCCCC(F)(F)F)c2ccccc2N(CCCC(F)(F)F)C1=O` (single isomer, unassigned) [Example 13], the “MAB (mouse)” value in series [1] (setting [4]) is recorded as 100%. The “MAB (human)” value in series [2] (setting [4]) was 87.4%. Moreover, the microsomal CLint at 10 μM in series [2] turned out to be 2.2 µL/min/mg.
Consider `CC(O)(C(=O)NCC(F)(F)C(F)(F)F)C(=O)N[C@H]1CN(CC(F)(F)F)c2ccc(F)cc2NC1=O` (single isomer, unassigned) [Example 3, N-[(S)-7-Fluoro-4-oxo-1-(2,2,2-trifluoro-ethyl)-2,3,4,5-tetrahydro-1H-benzo[b][1,4]diazepin-3-yl]-(R or S)-2-hydroxy-2-methyl-N′-(2,2,3,3,3-pentafluoro-propyl)-malonamide and N-[(S)-7-Fluoro-4-oxo-1-(2,2,2-trifluoro-ethyl)-2,3,4,5-tetrahydro-1H-benzo[b][1,4]diazepin-3-yl]-(S or R)-2-hydroxy-2-methyl-N′-(2,2,3,3,3-pentafluoro-propyl)-malonamide], for which, in series [1] (setting [4]), the “MAB (mouse)” value is reported as 20.1%. The microsomal CLint at 10 μM in series [1] worked out at 126 µL/min/mg; in series [2], 11.9 µL/min/mg. For the same compound, in series [2] (setting [4]), the “MAB (human)” value is listed as 56.7%.
In the case of `CC(O)(C(=O)NCC(F)(F)C(F)(F)F)C(=O)N[C@H]1CN(C(=O)OCC(F)(F)F)c2ccccc2N(CCO)C1=O` (single isomer, unassigned) [Example 12, (S)-5-(2-Hydroxy-ethyl)-3-[(S or R)-2-hydroxy-2-(2,2,3,3,3-pentafluoro-propylcarbamoyl) -propionylamino]-4-oxo-2,3,4,5-tetrahydro-benzo[b][1,4]diazepine-1-carboxylic acid 2,2,2-trifluoro-ethyl ester], the “MAB (mouse)” value in series [1] (setting [4]) was 97.2%. Also, the microsomal CLint at 10 μM came to 0.9 µL/min/mg in series [1] and 2.9 µL/min/mg in series [2]. In series [2] (setting [4]), the “MAB (human)” value is 84.3%. Further, in series [3] (room temperature (22.5±1° C.)), the thermodynamic solubility was determined as 3230 µg/mL (≈ 5430 µM).
Consider `CC(C)(C(=O)NCC(F)(F)C(F)(F)F)C(=O)N[C@H]1CN(C(=O)OCC(F)(F)F)c2ccccc2N(CC(F)(F)F)C1=O` [reference compound], for which the “MAB (mouse)” value in series [1] (comparison table) worked out at 28.4%. Besides, the “MAB (human)” value in series [2] (comparison table) is 19.6%. Moreover, the solubility (thermodynamic) in series [3] (setting [5]) turned out to be 16 µg/mL (≈ 25.4 µM).
Turning to `CC(O)(C(=O)NCC(F)(F)C(F)(F)F)C(=O)N[C@H]1CN(C(=O)OCC(F)(F)F)c2ccccc2N(CC(F)(F)F)C1=O` (single isomer, unassigned) [Example 11], the “MAB (mouse)” value in series [1] (comparison table) and in series [1] (setting [4]) was 74.9% each time. For the same compound, the microsomal CLint at 10 μM in series [1] was determined as 10.6 µL/min/mg. Besides, the “MAB (human)” value in series [2] (comparison table) and in series [2] (setting [4]) was 100.0% throughout. This compound also gave a solubility (thermodynamic) in series [3] (setting [5]) of 37 µg/mL (≈ 58.5 µM).
For the compound `CC(C)(C(=O)NCC(F)(F)C(F)(F)F)C(=O)N[C@H]1CN(CC(F)(F)F)c2ccccc2NC1=O` [reference compound], in series [1] (comparison table), the “MAB (mouse)” value amounted to 21.8%. Besides, the “MAB (human)” value in series [2] (comparison table) came to 43.1%. In series [3] (setting [5]), the solubility (thermodynamic) was less than 1 µg/mL.
For the compound `CC(O)(C(=O)NCC(F)(F)C(F)(F)F)C(=O)N[C@H]1CN(C(=O)OCC(F)(F)F)c2cc(F)c(F)cc2NC1=O` (single isomer, unassigned) [Example 1, (S)-7,8-Difluoro-3-[(R or S)-2-hydroxy-2-(2,2,3,3,3-pentafluoro-propylcarbamoyl)-propionylamino]-4-oxo-2,3,4,5-tetrahydro-benzo[b][1,4]diazepine-1-carboxylic acid 2,2,2-trifluoro-ethyl ester and (S)-7,8-Difluoro-3-[(S or R)-2-hydroxy-2-(2,2,3,3,3-pentafluoro-propylcarbamoyl)-propionylamino]-4-oxo-2,3,4,5-tetrahydro-benzo[b][1,4]diazepine-1-carboxylic acid 2,2,2-trifluoro-ethyl ester], the “MAB (mouse)” value in series [1] (setting [4]) is 58.5%. For the same compound, the microsomal CLint at 10 μM in series [1] was 22.4 µL/min/mg; in series [2], 0.05 µL/min/mg. Moreover, the “MAB (human)” value in series [2] (setting [4]) is recorded as 99.7%. This compound also showed a solubility (thermodynamic) in series [3] (room temperature (22.5±1° C.)) of 77 µg/mL (≈ 131 µM).
For `CC(O)(C(=O)NCC(F)(F)C(F)(F)F)C(=O)N[C@H]1CN(CC(F)(F)F)c2ccccc2N(CCO)C1=O` (single isomer, unassigned) [Example 9, (R or S)-2-Hydroxy-N-[(S)-1-(2-hydroxy-ethyl)-2-oxo-5-(2,2,2-trifluoro-ethyl)-2,3,4,5-tetrahydro-1H-benzo[b][1,4]diazepin-3-yl]-2-methyl-N′-(2,2,3,3,3-pentafluoro-propyl)-malonamide] the same measures were 32.7%, 65.2 µL/min/mg, 2.1 µL/min/mg, 88.2% and 1780 µg/mL (≈ 3240 µM).
Turning to `CC(O)(C(=O)NCC(F)(F)C(F)(F)F)C(=O)N[C@H]1CN(CCO)c2ccccc2NC1=O` (mixture of isomers) [Example 7, (RS)-2-Hydroxy-N-[(S)-1-(2-hydroxy-ethyl)-4-oxo-2,3,4,5-tetrahydro-1H-benzo[b][1,4]diazepin-3-yl]-2-methyl-N′-(2,2,3,3,3-pentafluoro-propyl)-malonamide], the “MAB (mouse)” value in series [1] (setting [4]) was 49.3%. Also, the microsomal CLint at 10 μM in series [1] came out at 32.5 µL/min/mg; in series [2], 5.2 µL/min/mg. For the same compound, in series [2] (setting [4]), the “MAB (human)” value is given as 74.9%.
`CC(C(=O)NCC(F)(F)C(F)(F)F)C(=O)N[C@H]1CN(C(=O)OCC2CC2)c2ccccc2N(CC(F)(F)F)C1=O` (stereo partly drawn) [reference compound]: in series [1] (comparison table), the “MAB (mouse)” value is 47.6%. Further, the “MAB (human)” value in series [2] (comparison table) is on record as 26.8%.

These data come from US7414049B2, “4-oxo-2,3,4,5-tetrahydro-benzo[b][1,4]diazepine derivatives” (Hoffmann-La Roche Inc., priority 2006, dated 2008).
